Consider five molecules from ChEMBL document CHEMBL5465560, “Selectivity Literature for EUbOPEN Chemogenomic Library” (2024).

The structures appear in SMILES notation.

Assay [1] concerns the target MAP kinase-interacting serine/threonine-protein kinase 2 (Homo sapiens, UniProt Q9HBH9). The assay is described as follows: Selectivity interaction (Kinase panel (Carna Biosciences)) EUB0001542aTs MKNK2. The note with it: at 1 µM.
The target in assay [2] is Tyrosine-protein kinase JAK2 (Homo sapiens, UniProt O60674). The assay is described as follows: Selectivity interaction (Ambit KINOMEscan and KiNATiv profiling in Jurkat cells) EUB0000090b JAK2. The note with it: at 1 µM. Format: cell-based.
The target of assay [3] is T1, Homeodomain-interacting protein kinase 4 (Homo sapiens) (UniProt Q8NE63).
T1 sequence (whole entry): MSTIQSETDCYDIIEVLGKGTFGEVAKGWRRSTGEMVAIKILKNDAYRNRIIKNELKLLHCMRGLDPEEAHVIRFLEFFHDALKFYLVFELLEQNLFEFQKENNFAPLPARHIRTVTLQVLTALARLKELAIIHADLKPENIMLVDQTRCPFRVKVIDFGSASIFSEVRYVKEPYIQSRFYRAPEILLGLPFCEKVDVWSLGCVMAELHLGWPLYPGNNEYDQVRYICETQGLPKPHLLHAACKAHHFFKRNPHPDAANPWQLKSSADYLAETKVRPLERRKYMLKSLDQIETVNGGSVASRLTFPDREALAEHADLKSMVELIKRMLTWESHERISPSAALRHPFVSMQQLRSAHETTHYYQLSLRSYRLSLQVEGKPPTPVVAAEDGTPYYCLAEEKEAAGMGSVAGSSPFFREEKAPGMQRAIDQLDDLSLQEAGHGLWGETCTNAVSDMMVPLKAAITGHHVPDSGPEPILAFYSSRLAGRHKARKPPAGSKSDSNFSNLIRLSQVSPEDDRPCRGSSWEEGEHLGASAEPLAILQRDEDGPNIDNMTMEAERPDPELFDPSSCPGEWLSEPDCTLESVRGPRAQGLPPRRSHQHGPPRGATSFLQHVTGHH
The assay is described as follows: Selectivity interaction (SelectScreen profiling (Invitrogen)) EUB0000607a HIPK4. The note with it: at 2 µM.

In assay [4] the target is Receptor-type tyrosine-protein kinase FLT3 (Homo sapiens) (UniProt P36888). Kind of assay: (§1) Selectivity interaction (KinomeScan (DiscoverX)) EUB0000311b FLT3. The note with it: at 1 µM.
Assay [5] relates to T2, Receptor-type tyrosine-protein kinase FLT3 (Homo sapiens), P36888 [D835Y].
T2 sequence (whole entry): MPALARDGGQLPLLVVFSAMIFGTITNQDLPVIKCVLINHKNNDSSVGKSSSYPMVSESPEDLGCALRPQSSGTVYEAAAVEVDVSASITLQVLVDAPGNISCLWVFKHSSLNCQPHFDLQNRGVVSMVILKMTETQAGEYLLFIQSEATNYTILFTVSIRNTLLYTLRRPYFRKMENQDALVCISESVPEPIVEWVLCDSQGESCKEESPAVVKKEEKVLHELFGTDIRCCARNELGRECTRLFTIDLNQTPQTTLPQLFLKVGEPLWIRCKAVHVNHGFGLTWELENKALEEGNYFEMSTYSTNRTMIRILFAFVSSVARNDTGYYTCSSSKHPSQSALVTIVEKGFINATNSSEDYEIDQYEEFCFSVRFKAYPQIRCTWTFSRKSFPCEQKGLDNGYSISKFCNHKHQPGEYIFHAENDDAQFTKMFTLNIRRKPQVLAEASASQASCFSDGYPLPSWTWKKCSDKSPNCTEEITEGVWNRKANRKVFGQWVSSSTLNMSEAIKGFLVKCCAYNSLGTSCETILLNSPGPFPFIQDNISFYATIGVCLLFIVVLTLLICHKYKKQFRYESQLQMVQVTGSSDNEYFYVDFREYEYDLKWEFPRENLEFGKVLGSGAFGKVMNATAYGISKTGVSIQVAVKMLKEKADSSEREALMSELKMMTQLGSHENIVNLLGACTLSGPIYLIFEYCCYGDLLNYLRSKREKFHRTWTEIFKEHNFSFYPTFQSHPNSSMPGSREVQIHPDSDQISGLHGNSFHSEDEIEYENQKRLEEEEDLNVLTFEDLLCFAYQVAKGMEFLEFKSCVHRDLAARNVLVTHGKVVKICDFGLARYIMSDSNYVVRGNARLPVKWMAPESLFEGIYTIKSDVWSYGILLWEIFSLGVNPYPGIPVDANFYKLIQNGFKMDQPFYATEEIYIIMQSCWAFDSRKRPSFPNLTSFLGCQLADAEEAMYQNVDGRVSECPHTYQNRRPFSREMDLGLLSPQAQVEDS
Described as §1. The note with it: at 1 µM.

Assay [6] has as its target T3, Discoidin domain-containing receptor 2 (Homo sapiens) (UniProt Q16832).
T3 sequence (whole entry): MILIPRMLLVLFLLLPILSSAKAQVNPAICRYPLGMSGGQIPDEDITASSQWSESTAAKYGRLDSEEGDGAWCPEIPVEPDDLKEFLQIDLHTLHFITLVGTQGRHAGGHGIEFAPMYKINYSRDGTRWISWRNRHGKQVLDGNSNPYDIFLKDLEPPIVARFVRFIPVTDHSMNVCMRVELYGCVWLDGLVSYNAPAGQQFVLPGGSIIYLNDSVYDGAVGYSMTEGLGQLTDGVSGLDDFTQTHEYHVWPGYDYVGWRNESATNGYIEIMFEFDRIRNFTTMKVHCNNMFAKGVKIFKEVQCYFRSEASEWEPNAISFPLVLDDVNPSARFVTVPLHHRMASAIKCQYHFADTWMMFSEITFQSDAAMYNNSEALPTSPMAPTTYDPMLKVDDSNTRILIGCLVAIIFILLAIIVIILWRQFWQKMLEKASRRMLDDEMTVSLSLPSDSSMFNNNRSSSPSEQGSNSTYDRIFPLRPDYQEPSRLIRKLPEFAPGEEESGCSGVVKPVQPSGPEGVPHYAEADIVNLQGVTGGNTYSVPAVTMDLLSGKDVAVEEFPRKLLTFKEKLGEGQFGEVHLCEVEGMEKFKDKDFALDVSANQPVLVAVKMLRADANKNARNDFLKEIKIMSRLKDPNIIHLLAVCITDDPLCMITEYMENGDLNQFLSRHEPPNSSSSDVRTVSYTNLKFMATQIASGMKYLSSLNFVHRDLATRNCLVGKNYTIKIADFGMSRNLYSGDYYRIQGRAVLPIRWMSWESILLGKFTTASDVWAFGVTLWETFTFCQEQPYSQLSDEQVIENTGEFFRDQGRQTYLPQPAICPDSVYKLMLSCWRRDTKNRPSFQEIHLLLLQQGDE
Kind of assay: Selectivity interaction (KinomeScan (DiscoverX)) EUB0001619a DDR2. The note with it: at 1 µM.

Sequence of Tyrosine-protein kinase JAK2 (O60674 whole entry): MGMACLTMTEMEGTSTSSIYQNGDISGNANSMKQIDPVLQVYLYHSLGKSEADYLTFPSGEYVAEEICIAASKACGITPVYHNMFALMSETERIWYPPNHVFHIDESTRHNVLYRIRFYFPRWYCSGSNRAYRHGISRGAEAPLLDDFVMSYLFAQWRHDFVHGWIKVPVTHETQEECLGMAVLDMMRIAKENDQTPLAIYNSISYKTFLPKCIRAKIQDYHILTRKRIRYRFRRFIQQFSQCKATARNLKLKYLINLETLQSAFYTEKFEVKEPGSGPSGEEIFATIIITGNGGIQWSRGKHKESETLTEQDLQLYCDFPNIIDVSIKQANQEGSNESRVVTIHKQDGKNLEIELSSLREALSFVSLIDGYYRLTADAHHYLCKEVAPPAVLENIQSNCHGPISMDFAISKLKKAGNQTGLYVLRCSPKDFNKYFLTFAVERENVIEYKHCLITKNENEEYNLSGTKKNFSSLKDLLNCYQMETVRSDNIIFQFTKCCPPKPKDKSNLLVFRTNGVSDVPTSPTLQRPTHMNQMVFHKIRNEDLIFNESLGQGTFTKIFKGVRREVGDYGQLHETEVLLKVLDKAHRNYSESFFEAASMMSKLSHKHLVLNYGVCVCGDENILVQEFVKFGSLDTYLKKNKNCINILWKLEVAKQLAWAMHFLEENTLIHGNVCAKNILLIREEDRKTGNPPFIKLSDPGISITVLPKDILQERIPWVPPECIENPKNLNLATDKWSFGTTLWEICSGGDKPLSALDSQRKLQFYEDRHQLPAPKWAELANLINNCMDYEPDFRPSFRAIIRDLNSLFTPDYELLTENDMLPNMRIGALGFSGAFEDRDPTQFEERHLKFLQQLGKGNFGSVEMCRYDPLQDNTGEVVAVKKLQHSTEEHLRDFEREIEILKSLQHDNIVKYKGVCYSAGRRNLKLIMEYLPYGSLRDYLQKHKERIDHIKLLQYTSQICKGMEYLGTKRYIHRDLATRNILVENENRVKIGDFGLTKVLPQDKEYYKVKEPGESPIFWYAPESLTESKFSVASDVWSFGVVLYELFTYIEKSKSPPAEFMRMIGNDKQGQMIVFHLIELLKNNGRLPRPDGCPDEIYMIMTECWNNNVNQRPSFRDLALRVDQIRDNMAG
Sequence of MAP kinase-interacting serine/threonine-protein kinase 2 (Q9HBH9 whole entry, looked up): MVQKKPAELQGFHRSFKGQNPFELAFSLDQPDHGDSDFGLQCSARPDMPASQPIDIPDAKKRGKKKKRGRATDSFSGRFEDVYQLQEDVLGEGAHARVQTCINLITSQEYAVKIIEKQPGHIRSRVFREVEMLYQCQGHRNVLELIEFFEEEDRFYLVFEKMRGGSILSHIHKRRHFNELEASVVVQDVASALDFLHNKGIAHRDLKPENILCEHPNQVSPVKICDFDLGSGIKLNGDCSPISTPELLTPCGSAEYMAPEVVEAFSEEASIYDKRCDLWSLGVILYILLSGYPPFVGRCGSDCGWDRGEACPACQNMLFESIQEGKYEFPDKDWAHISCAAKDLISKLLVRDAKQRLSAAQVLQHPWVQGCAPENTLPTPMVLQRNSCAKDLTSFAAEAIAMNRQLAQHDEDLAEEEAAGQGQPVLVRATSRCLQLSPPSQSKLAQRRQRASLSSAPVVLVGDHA

`Cn1cc(Nc2nccc(N3CC4CCC(C3)N4C(=O)[C@@H]3CC3(F)F)n2)cn1`: the % of inhibition in assay [1] is 68%.

`CN(C)C/C=C/C(=O)Nc1ccc(C(=O)N2CCCC(Nc3ncc(Cl)c(-c4c[nH]c5ccccc45)n3)C2)cc1` (stereo unspecified): in assay [2], the % of control was found to be 89%.

In assay [3], `CNC(=O)Nc1ccc(-c2nc(N3CC4CCC(C3)O4)c3cnn(C4CCC5(CC4)OCCO5)c3n2)cc1` gave a % of inhibition of 7%.

With `CCc1ccccc1C(=O)Nc1n[nH]c2c(C)c(F)c(C3C(C#N)=C(C)N(C)C(C)=C3C#N)cc12` [BAY-3827], the % of control in assay [4] worked out at 16%; in assay [5], 2.5%.

Take `N#Cc1cccc(-c2c[nH]c3ncnc(N4CCOCC4)c23)c1`: the % of control in assay [6] worked out at 71%.
